Patent publication US7358259B2, “HCV inhibitors and methods of using them” (Rigel Pharmaceuticals, Inc., priority 2003, dated 2008)

The compounds below were run on HCV replicon in 5-2Luc replicon cells (assay: HCV Replicon Assay (luciferase)). Details: Hepatitis C virus; Table 4; assay not given.
Type: cell-based
Procedure: Actively dividing 5-2Luc replicon cells were seeded at the density of 5000-7500 cells/well in the volume of 90 μl/well into 96 well plate(s). The cells were then incubated at 37° C. and 5% CO2 for 24 hours. The 5-2 cells are replicon cells licensed from Ralf Bartenschlager (Germany) and have a self-replicating RNA molecule in the Huh7 cell; the RNA contains HCV non-structural proteins that make the self-replication possible.
Various concentrations of compounds (in the volume of 10 μl) were added into each well 24 hours after seeding the cells. The cells were incubated for another 24 hours before luciferase assay.
After incubating the 5-2 Luc replicon cells with the compounds for 24 hours, media were aspirated from each well and Bright-Glo ([…]) luciferase assay reagents were added to each well according to the manufacturer's manual. Briefly, the Bright-Glo reagent was diluted with equal volume of PBS and an aliquote (100 μl) was added to each well. After incubating the plate at room temperature for 5 minutes, luciferase counts were taken using a luminometer.

**Q.** Which IC50 does the source give for `Cc1cccc2cc(C(=O)NO)c3nnnn3c12` [N-hydroxy-9-methyltetrazolo[1,5-a]quino-line-4-carboxamide] here?
**A.** The IC50 was less than 10 µM.

**Q.** Which IC50 does the source give for `COc1ccc2cc(C(=O)NOC3CCCCO3)c3nnnn3c2c1` (stereo not shown) [8-methoxy-N-(tetrahydro-2H-py-ran-2-yloxy)tetrazolo[1,5-a]quino-line-4-carboxamide] here?
**A.** The IC50 was greater than 10 µM.

**Q.** With `COc1cc2cc(C(=O)NO)c3nnnn3c2cc1Cl` [8-chloro-N-hydroxy-7-meth-oxytetrazolo[1,5-a]quino-line-4-carboxamide] as the compound, how does the IC50 read?
**A.** Its IC50 is less than 10 µM.

**Q.** `COc1cc2cc(C(=O)NOC3CCCCO3)c3nnnn3c2cc1Cl` (stereo not shown) [8-chloro-7-methoxy-N-(tetra-hydro-2H-pyran-2-yl-oxy)tetrazolo[1,5-a]quinoline-4-car-boxamide] was tested. Which IC50 did it give?
**A.** The IC50 was greater than 10 µM.

**Q.** With `Cc1cc(C)c2c(c1)cc(C(=O)NOC1CCCCO1)c1nnnn12` (stereo not shown) [7,9-dimethyl-N-(tetrahydro-2H-py-ran-2-yloxy)tetrazolo[1,5-a]quino-line-4-carboxamide] as the compound, how does the IC50 read?
**A.** Its IC50 is greater than 10 µM.

**Q.** How did the IC50 turn out when `O=C(NO)c1cc2ccc(F)cc2n2c(Cl)nnc12` [1-chloro-8-fluoro-N-hydroxy-[1,2,4]tri-azolo[4,3-a]quinoline-4-car-boxamide] was run?
**A.** The IC50 was less than 10 µM.

**Q.** With `O=C(NO)c1cc2cc(Cl)cc(Cl)c2n2cnnc12` [7,9-dichloro-N-hydroxy-[1,2,4]tri-azolo[4,3-a]quinoline-4-car-boxamide] as the compound, how does the IC50 read?
**A.** The IC50 was less than 10 µM.

**Q.** With `O=C(NOC1CCCCO1)c1cc2ccccc2n2nnnc12` (stereo not shown) [N-(tetrahydro-2H-pyran-2-yl-oxy)tetrazolo[1,5-a]quinoline-4-car-boxamide] as the compound, how does the IC50 read?
**A.** The IC50 was greater than 10 µM.

**Q.** Which IC50 does the source give for `O=C(NOC1CCCCO1)c1cc2cc(Cl)ccc2n2cnnc12` (stereo not shown) [7-chloro-N-(tetrahydro-2H-pyran-2-yl-oxy)-[1,2,4]triazolo[4,3-a]quino-line-4-carboxamide] here?
**A.** The IC50 was greater than 10 µM.

**Q.** `O=C(NO)c1cc2cc3c(cc2n2nnnc12)OCCO3` [N-hydroxy-8,9-di-hydro[1,4]dioxino[2,3-g]tetra-zolo[1,5-a]quinoline-4-car-boxamide] was tested. Which IC50 did it give?
**A.** Its IC50 is less than 10 µM.

**Q.** For `Cc1cc(C)c2c(c1)cc(C(=O)NO)c1nnnn12` [N-hydroxy-7,9-di-methyltetrazolo[1,5-a]quino-line-4-carboxamide], which IC50 is on record?
**A.** Its IC50 is less than 10 µM.

**Q.** Which IC50 does the source give for `O=C(NOC1CCCCO1)c1cc2cc(Cl)cc(Cl)c2n2nnnc12` (stereo not shown) [7,9-dichloro-N-(tetrahydro-2H-py-ran-2-yloxy)tetrazolo[1,5-a]quino-line-4-carboxamide] here?
**A.** The IC50 was greater than 10 µM.

**Q.** For `O=C(O)c1cc2cc(Cl)cc(Cl)c2n2cnnc12` [7,9-dichloro-[1,2,4]triazolo[4,3-a]quino-line-4-carboxylic acid], which IC50 is on record?
**A.** The IC50 was greater than 10 µM.

**Q.** `COc1cc2cc(C(=O)NO)c3nnnn3c2cc1OC` [N-hydroxy-7,8-di-methoxytetrazolo[1,5-a]quino-line-4-carboxamide] was tested. Which IC50 did it give?
**A.** The IC50 was less than 10 µM.

**Q.** With `O=C(NO)c1cnc2ccccc2c1` [N-hydroxyquinoline-3-car-boxamide] as the compound, how does the IC50 read?
**A.** Its IC50 is greater than 10 µM.

**Q.** For `COC(=O)c1cc2ccc(F)cc2n2cnnc12` [methyl 8-fluoro-[1,2,4]tri-azolo[4,3-a]quinoline-4-car-boxylate], which IC50 is on record?
**A.** The IC50 was greater than 10 µM.

**Q.** `O=C(NO)c1cc2ccc(OC(F)(F)F)cc2n2nnnc12` [N-hydroxy-8-(tri-fluoromethoxy)tetrazolo[1,5-a]quino-line-4-carboxamide] was tested. Which IC50 did it give?
**A.** Its IC50 is less than 10 µM.

**Q.** For `O=C(NO)c1cc2cccc(Cl)c2n2nnnc12` [9-chloro-N-hydroxytetrazolo[1,5-a]quino-line-4-carboxamide], which IC50 is on record?
**A.** Its IC50 is less than 10 µM.

**Q.** For `O=C(NO)c1cc2cc(Cl)ccc2n2nnnc12` [7-chloro-N-hydroxytetrazolo[1,5-a]quino-line-4-carboxamide], which IC50 is on record?
**A.** The IC50 was less than 10 µM.

**Q.** Which IC50 does the source give for `O=C(NO)c1cc2ccccc2n2nnnc12` [N-hydroxytetrazolo[1,5-a]quino-line-4-carboxamide] here?
**A.** Its IC50 is less than 10 µM.

**Q.** For `ClC(Cl)c1nnc(-c2cc3nnnn3c3ccccc23)o1` [5-(5-(dichloromethyl)-1,3,4-oxa-diazol-2-yl)tetrazolo[1,5-a]quino-line], which IC50 is on record?
**A.** The IC50 was greater than 10 µM.

**Q.** Which IC50 does the source give for `O=C(NO)c1cc2cc(F)ccc2n2nnnc12` [7-fluoro-N-hydroxytetrazolo[1,5-a]quino-line-4-carboxamide] here?
**A.** The IC50 was less than 10 µM.

**Q.** For `O=C(NO)c1cc2nnnn2c2ccccc12` [N-hydroxytetrazolo[1,5-a]quino-line-5-carboxamide], which IC50 is on record?
**A.** Its IC50 is greater than 10 µM.

**Q.** Which IC50 does the source give for `COC(=O)c1cc2nnnn2c2ccccc12` [methyl tetrazolo[1,5-a]quinoline-5-car-boxylate] here?
**A.** The IC50 was greater than 10 µM.

**Q.** For `O=C(NO)c1cc2ccc(C(F)(F)F)cc2n2nnnc12` [N-hydroxy-8-(tri-fluoromethyl)tetrazolo[1,5-a]quino-line-4-carboxamide], which IC50 is on record?
**A.** The IC50 was less than 10 µM.

**Q.** `Cc1nnc2c(C(=O)NO)cc3cc(Cl)ccc3n12` [7-chloro-N-hydroxy-1-methyl-[1,2,4]tri-azolo[4,3-a]quinoline-4-car-boxamide] was tested. Which IC50 did it give?
**A.** The IC50 was less than 10 µM.

**Q.** For `O=C(NO)c1cc2cc(Cl)cc(Cl)c2n2nnnc12` [7,9-dichloro-N-hy-droxytetrazolo[1,5-a]quinoline-4-car-boxamide], which IC50 is on record?
**A.** The IC50 was less than 10 µM.

**Q.** `CCOC(=O)c1cc2cc(Cl)cc(Cl)c2n2cnnc12` [ethyl 7,9-dichloro-[1,2,4]tri-azolo[4,3-a]quinoline-4-car-boxylate] was tested. Which IC50 did it give?
**A.** The IC50 was greater than 10 µM.

**Q.** Which IC50 does the source give for `O=C(O)c1cc2ccc(F)cc2n2cnnc12` [8-fluoro-[1,2,4]triazolo[4,3-a]quino-line-4-carboxylic acid] here?
**A.** Its IC50 is greater than 10 µM.

**Q.** For `O=C(NOC1CCCCO1)c1cc2c(Cl)cccc2n2nnnc12` (stereo not shown) [6-chloro-N-(tetrahydro-2H-pyran-2-yl-oxy)tetrazolo[1,5-a]quinoline-4-car-boxamide], which IC50 is on record?
**A.** The IC50 was greater than 10 µM.

**Q.** Which IC50 does the source give for `CCOC(=O)c1cc2cc(Cl)ccc2n2cnnc12` [ethyl 7-chloro-[1,2,4]tri-azolo[4,3-a]quinoline-4-car-boxylate] here?
**A.** The IC50 was greater than 10 µM.

**Q.** Which IC50 does the source give for `O=C(NO)c1cc2cc(Cl)ccc2n2cnnc12` [7-chloro-N-hydroxy-[1,2,4]tri-azolo[4,3-a]quinoline-4-car-boxamide] here?
**A.** The IC50 was less than 10 µM.

**Q.** Which IC50 does the source give for `CCOC(=O)c1cc2cc(Cl)ccc2n2c(C)nnc12` [ethyl 7-chloro-1-methyl-[1,2,4]tri-azolo[4,3-a]quinoline-4-car-boxylate] here?
**A.** The IC50 was greater than 10 µM.

**Q.** For `Cc1cccc2cc(C(=O)NOC3CCCCO3)c3nnnn3c12` (stereo not shown) [9-methyl-N-(tetrahydro-2H-pyran-2-yl-oxy)tetrazolo[1,5-a]quinoline-4-car-boxamide], which IC50 is on record?
**A.** Its IC50 is greater than 10 µM.

**Q.** `O=C(NOC1CCCCO1)c1cc2cccc(Cl)c2n2nnnc12` (stereo not shown) [9-chloro-N-(tetrahydro-2H-pyran-2-yl-oxy)tetrazolo[1,5-a]quinoline-4-car-boxamide] was tested. Which IC50 did it give?
**A.** Its IC50 is greater than 10 µM.

**Q.** `CN(O)C(=O)c1cc2ccc(Cl)cc2n2nnnc12` [8-chloro-N-hydroxy-N-meth-yltetrazolo[1,5-a]quinoline-4-car-boxamide] was tested. Which IC50 did it give?
**A.** Its IC50 is greater than 10 µM.

**Q.** Which IC50 does the source give for `O=C(NO)c1cc2c(Cl)cccc2n2nnnc12` [6-chloro-N-hydroxytetrazolo[1,5-a]quino-line-4-carboxamide] here?
**A.** Its IC50 is less than 10 µM.

**Q.** `O=C(NOC1CCCCO1)c1cc2ccc(OC(F)(F)F)cc2n2nnnc12` (stereo not shown) [N-(tetrahydro-2H-pyran-2-yloxy)-8-(tri-fluoromethoxy)tetrazolo[1,5-a]quino-line-4-carboxamide] was tested. Which IC50 did it give?
**A.** The IC50 was greater than 10 µM.

**Q.** How did the IC50 turn out when `O=C(NOC1CCCCO1)c1cc2nnnn2c2ccccc12` (stereo not shown) [N-(tetrahydro-2H-pyran-2-yl-oxy)tetrazolo[1,5-a]quinoline-5-car-boxamide] was run?
**A.** The IC50 was greater than 10 µM.

**Q.** With `O=C(NO)c1cc2ccccc2nc1Cl` [2-chloro-N-hydroxyquinoline-3-car-boxamide] as the compound, how does the IC50 read?
**A.** The IC50 was greater than 10 µM.

**Q.** `COc1cc2cc(C(=O)NOC3CCCCO3)c3nnnn3c2cc1OC` (stereo not shown) [7,8-dimethoxy-N-(tetrahydro-2H-py-ran-2-yloxy)tetrazolo[1,5-a]quino-line-4-carboxamide] was tested. Which IC50 did it give?
**A.** The IC50 was less than 10 µM.

**Q.** With `O=C(NOC1CCCCO1)c1cc2cc(Cl)ccc2n2nnnc12` (stereo not shown) [7-chloro-N-(tetrahydro-2H-pyran-2-yl-oxy)tetrazolo[1,5-a]quinoline-4-car-boxamide] as the compound, how does the IC50 read?
**A.** Its IC50 is greater than 10 µM.

**Q.** With `O=C(NO)c1cc2ccc(Cl)cc2n2nnnc12` [8-chloro-N-hydroxytetrazolo[1,5-a]quino-line-4-carboxamide] as the compound, how does the IC50 read?
**A.** Its IC50 is less than 10 µM.

**Q.** `COc1ccc2cc(C(=O)NO)c3nnnn3c2c1` [N-hydroxy-8-meth-oxytetrazolo[1,5-a]quino-line-4-carboxamide] was tested. Which IC50 did it give?
**A.** Its IC50 is greater than 10 µM.

**Q.** For `O=C(NOC1CCCCO1)c1cc2ccc(F)cc2n2c(Cl)nnc12` (stereo not shown) [1-chloro-8-fluoro-N-(tetrahydro-2H-py-ran-2-yloxy)-[1,2,4]tri-azolo[4,3-a]quinoline-4-car-boxamide], which IC50 is on record?
**A.** Its IC50 is greater than 10 µM.

**Q.** With `O=C(NOC1CCCCO1)c1cc2cc(Cl)cc(Cl)c2n2cnnc12` (stereo not shown) [7,9-dichloro-N-(tetrahydro-2H-py-ran-2-yloxy)-[1,2,4]tri-azolo[4,3-a]quinoline-4-car-boxamide] as the compound, how does the IC50 read?
**A.** Its IC50 is greater than 10 µM.
